This assay concerns the target T1, NLRP3 (Homo sapiens, UniProt Q96P20).
T1 construct: Seed THP-1 cells (5.56*10^5 cells/mL) containing 1.0 ug/mL LPS; endogenous in cells; host or cells: THP-1 cells
Briefly: THP-1 cell assay (LPS priming, nigericin), IL1β release by HTRF; called pyroptosis assay, THP IC50. It counts as cell-based. Particulars: NLRP3 inhibitory activity; THP-1 cells, 1.0 ug/mL LPS, compound 3 hrs, nigericin 5 uM 1 hr, IL1β in supernatant. As to the method:
The following method was used for compound screening. • 1. Seed THP-1 cells (5.56*10^5 cells/mL) containing 1.0 ug/mL LPS (SIGMA, L6529) in 45 uL RPMI 1640 medium (without FBS) into 384-well plate (Thermo Scientific, 164688). • 2. Add 5 uL compound (10 doses starting from 5 uM, 1:3 dilution) or vehicle (0.05% DMSO in medium) to the appropriate wells. • 3. Centrifuge the plates at 1000 rpm for 2 mins and incubate for 3 hrs at 37° C., 5% CO2. • 4. Add 5 uL nigericin (MEC, HY-100381) (final conc. 5 uM) to sample wells and positive control wells; add 5 uL RPMI 1640 medium to negative control wells. • 5. Centrifuge plates at 1000 rpm for 2 mins and incubate for 1 hr at 37° C., 5% CO2. • 6. At the end of the incubation period, centrifuge plates at 1000 rpm for 6 mins and transfer 8 uL supernatant into 384-well assay plates (PerkinElmer, 6008280). • 7. Add 8 ul RPMI 1640 medium into each well and spin down for 10 secs. • 8. Prepare the standard solutions and pre-mixed IL1β antibody solution of Human […] kits (PerkinElmer, 62HIL1BPEH) according to the instruction. • 9. Add 16 uL standard solutions into clear wells of 384-well assay plates. • 10. Add 4 uL pre-mixed IL1β antibody solution to all wells including sample wells, positive control wells, negative control wells and standard solutions wells. • 11. Seal the plates, spin down for 10 secs, incubation for overnight at RT and read on an HTRF® compatible reader (BMG LABTECH, PHERAstar FS). • 12. The concentrations of IL1β for treated wells are calculated by the standard curve. • 13. The IC50 data is fitted to a non-liner regression equation (log inhibitor vs. response—Variable slope four parameters)).
A general note: In TR-FRET formats the signal depends on donor and acceptor labels being close together.

By IC50 is commonly meant the concentration needed to halve the response being measured. A high value points to weaker potency in that assay.

T1 sequence (Q96P20 whole entry): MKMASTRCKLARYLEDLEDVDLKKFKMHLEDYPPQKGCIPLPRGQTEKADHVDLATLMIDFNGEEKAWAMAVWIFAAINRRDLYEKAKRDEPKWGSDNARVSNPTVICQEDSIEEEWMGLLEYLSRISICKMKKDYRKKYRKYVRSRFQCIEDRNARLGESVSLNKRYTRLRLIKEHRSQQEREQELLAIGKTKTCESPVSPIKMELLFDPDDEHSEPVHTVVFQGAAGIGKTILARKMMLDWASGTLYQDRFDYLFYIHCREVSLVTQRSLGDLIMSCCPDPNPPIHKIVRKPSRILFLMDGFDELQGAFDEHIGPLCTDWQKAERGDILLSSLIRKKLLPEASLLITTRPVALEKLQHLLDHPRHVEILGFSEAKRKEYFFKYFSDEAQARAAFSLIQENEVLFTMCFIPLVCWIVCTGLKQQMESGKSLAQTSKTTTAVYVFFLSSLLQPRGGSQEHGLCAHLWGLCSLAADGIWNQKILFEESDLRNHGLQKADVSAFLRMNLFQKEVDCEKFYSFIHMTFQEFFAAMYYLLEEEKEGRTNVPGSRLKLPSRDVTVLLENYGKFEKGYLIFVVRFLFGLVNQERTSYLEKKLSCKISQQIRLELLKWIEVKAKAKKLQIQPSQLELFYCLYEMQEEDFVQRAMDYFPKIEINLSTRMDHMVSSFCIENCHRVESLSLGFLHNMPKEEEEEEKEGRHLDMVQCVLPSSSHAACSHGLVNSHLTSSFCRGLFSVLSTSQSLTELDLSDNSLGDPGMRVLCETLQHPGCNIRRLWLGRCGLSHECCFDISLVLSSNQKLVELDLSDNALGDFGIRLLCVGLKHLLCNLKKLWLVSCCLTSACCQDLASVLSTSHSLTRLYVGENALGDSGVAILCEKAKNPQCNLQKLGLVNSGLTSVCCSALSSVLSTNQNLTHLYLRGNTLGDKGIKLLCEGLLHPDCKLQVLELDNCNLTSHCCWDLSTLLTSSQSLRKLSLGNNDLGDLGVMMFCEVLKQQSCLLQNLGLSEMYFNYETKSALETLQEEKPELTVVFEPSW

`CC(C)(O)c1csc(S(=O)(=O)NC(=O)Nc2c(-c3ccnc4c3ccn4C3COC3)ccc3c2CCC3)c1` [Example 59, 4-(2-hydroxypropan-2-yl)-N-((5-(1-(oxetan-3-yl)-1H-pyrrolo[2,3-b]pyridin-4-yl)-2,3-dihydro-1H-inden-4-yl)carbamoyl)thiophene-2-sulfonamide] showed an IC50 of 30 to 300 nM.

For the compound `CC(C)(O)c1csc(S(=O)(=O)NC(=O)Nc2c(-c3ccnc4[nH]ccc34)ccc3c2CCC3)c1` [Example 40, N-((5-(1H-pyrrolo[2,3-b]pyridin-4-yl)-2,3-dihydro-1H-inden-4-yl)carbamoyl)-4-(2-hydroxypropan-2-yl)thiophene-2-sulfonamide], the IC50 is not above 30 nM.

Compound `CN1CCC(n2ccc3c(-c4ccc5c(c4NC(=O)NS(=O)(=O)c4cc(C(C)(C)O)cs4)CCC5)ccnc32)CC1` [Example 55, 4-(2-hydroxypropan-2-yl)-N-((5-(1-(1-methylpiperidin-4-yl)-1H-pyrrolo[2,3-b]pyridin-4-yl)-2,3-dihydro-1H-inden-4-yl)carbamoyl)thiophene-2-sulfonamide] registered an IC50 of 300 to 1000 nM.

In turn, `Cc1cc2c(c(NC(=O)NS(=O)(=O)c3cncc(OC4CC4)c3)c1-c1ccn3nccc3c1)CCC2` [Example 34, 5-cyclopropoxy-N-((6-methyl-5-(pyrazolo[1,5-a]pyridin-5-yl)-2,3-dihydro-1H-inden-4-yl)carbamoyl)pyridine-3-sulfonamide] yielded an IC50 not above 30 nM.

Take `Cc1cc2c(c(NC(=O)NS(=O)(=O)c3cnn(CC4CC4)c3)c1-c1ccn3ccnc3c1)CCC2` [Example 18, 1-(cyclopropylmethyl)-N-((5-(imidazo[1,2-a]pyridin-7-yl)-6-methyl-2,3-dihydro-1H-inden-4-yl)carbamoyl)-1H-pyrazole-4-sulfonamide]: the IC50 was not above 30 nM.

`Cc1cc2c(c(NC(=O)NS(=O)(=O)c3cc(CN(C)C)n(C4CC4)n3)c1-c1ccn3nccc3c1)CCC2` [Example 77, 1-cyclopropyl-5-((dimethylamino)methyl)-N-((6-methyl-5-(pyrazolo[1,5-a]pyridin-5-yl)-2,3-dihydro-1H-inden-4-yl)carbamoyl)-1H-pyrazole-3-sulfonamide] had an IC50 of 30 to 300 nM.

`Cc1cc2cc(-c3ccc4c(c3NC(=O)NS(=O)(=O)c3cc(C(C)(C)O)cs3)CCC4)ccn2n1` [Example 74, 4-(2-hydroxypropan-2-yl)-N-((5-(2-methylpyrazolo[1,5-a]pyridin-5-yl)-2,3-dihydro-1H-inden-4-yl)carbamoyl)thiophene-2-sulfonamide] showed an IC50 not above 30 nM.

`O=C(Nc1c2c(cc(F)c1-c1ccn3nccc3c1)CCO2)NS(=O)(=O)c1ccn(C2CC2)n1` [Example 87, 1-cyclopropyl-N-((5-fluoro-6-(pyrazolo[1,5-a]pyridin-5-yl)-2,3-dihydrobenzofuran-7-yl)carbamoyl) 1H-pyrazole-3-sulfonamide] registered an IC50 of 300 to 1000 nM.

Regarding `Cc1cc2c(c(NC(=O)NS(=O)(=O)c3ccn(C[C@@H]4CCO4)n3)c1-c1ccn3nccc3c1)CCC2` [Example 91, (S)—N-((6-methyl-5-(pyrazolo[1,5-a]pyridin-5-yl)-2,3-dihydro-1H-inden-4-yl)carbamoyl)-1-(oxetan-2-ylmethyl)-1H-pyrazole-3-sulfonamide], the 50% inhibitory concentration (IC50) is not above 30 nM.

The compound `Cn1ncc2c(-c3ccc4c(c3NC(=O)NS(=O)(=O)c3cc(C(C)(C)O)cs3)CCC4)ccnc21` [Example 48, 4-(2-hydroxypropan-2-yl)-N-((5-(1-methyl-1H-pyrazolo[3,4-b]pyridin-4-yl)-2,3-dihydro-1H-inden-4-yl)carbamoyl)thiophene-2-sulfonamide] gave an IC50 of 30 to 300 nM.

The compound `CC(C)(O)c1csc(S(=O)(=O)NC(=O)Nc2c(-c3ccn4ccnc4c3)ccc3c2OCO3)c1` [Example 66, 4-(2-hydroxypropan-2-yl)-N-((5-(imidazo[1,2-a]pyridin-7-yl)benzo[d][1,3]dioxol-4-yl)carbamoyl)thiophene-2-sulfonamide] returned an IC50 not above 30 nM.

In turn, `CC(C)n1ccc(S(=O)(=O)NC(=O)Nc2c(-c3ccnc4c3ccn4C)ccc3c2CCC3)n1` [Example 50, 1-isopropyl-N-((5-(1-methyl-1H-pyrrolo[2,3-b]pyridin-4-yl)-2,3-dihydro-1H-inden-4-yl)carbamoyl)-1H-pyrazole-3-sulfonamide] showed an IC50 of 300 to 1000 nM.

Consider `Cc1cc2c(c(NC(=O)NS(=O)(=O)c3ccn(C4CC4)n3)c1-c1ccn3cnnc3c1)CCC2` [Example 93, N-((5-([1,2,4]triazolo[4,3-a]pyridin-7-yl)-6-methyl-2,3-dihydro-1H-inden-4-yl)carbamoyl)-1-cyclopropyl-pyrazole-3-sulfonamide], for which the IC50 was not above 30 nM.

`Cc1cc2c(c(NC(=O)NS(=O)(=O)c3cc(OC4CC4)cnn3)c1-c1ccn3nccc3c1)CCC2` [Example 81, 5-cyclopropoxy-N-((6-methyl-5-(pyrazolo[1,5-a]pyridin-5-yl)-2,3-dihydro-1H-inden-4-yl)carbamoyl)-1H-pyridazine-3-sulfonamide] displayed an IC50 not above 30 nM.

As to `Cc1cc2c(c(NC(=O)NS(=O)(=O)c3ccn([C@@H]4CC[C@@H]4O)n3)c1-c1ccn3nccc3c1)CCC2` (relative stereo) [Example 85, 1-(rel-(1R,2S)-2-hydroxycyclobutyl)-N-((6-methyl-5-(pyrazolo[1,5-a]pyridin-5-yl)-2,3-dihydro-1H-inden-4-yl)carbamoyl)-1H-pyrazole-3-sulfonamide], the IC50 was more than 2000 nM.

For the compound `Cc1cc2c(c(NC(=O)NS(=O)(=O)c3cnn(C4CCC4)c3)c1-c1ccn3nccc3c1)CCC2` [Example 12, 1-cyclobutyl-N-((6-methyl-5-(pyrazolo[1,5-a]pyridin-5-yl)-2,3-dihydro-1H-inden-4-yl)carbamoyl)-1H-pyrazole-4-sulfonamide], the IC50 was not above 30 nM.

Regarding `Cc1c(-c2ccc3c(c2NC(=O)NS(=O)(=O)c2cc(C(C)(C)O)cs2)CCC3)ccn2ccnc12` [Example 72, 4-(2-hydroxypropan-2-yl)-N-((5-(8-methylimidazo[1,2-a]pyridin-7-yl)-2,3-dihydro-1H-inden-4-yl)carbamoyl)thiophene-2-sulfonamide], the half-inhibitory concentration (IC50) was 30 to 300 nM.

In turn, `CN(c1cncc(S(=O)(=O)NC(=O)Nc2c(-c3ccn4nccc4c3)ccc3c2CCC3)c1)C1CC1` [Example 30, 5-(cyclopropyl(methyl)amino)-N-((5-(pyrazolo[1,5-a]pyridin-5-yl)-2,3-dihydro-1H-inden-4-yl)carbamoyl)pyridine-3-sulfonamide] showed an IC50 of 30 to 300 nM.

In turn, `Cc1cc2c(c(NC(=O)NS(=O)(=O)c3ccnc(N4CCOCC4)c3)c1-c1ccn3nccc3c1)CCC2` [Example 32, N-((6-methyl-5-(pyrazolo[1,5-a]pyridin-5-yl)-2,3-dihydro-1H-inden-4-yl)carbamoyl)-2-morpholinopyridine-4-sulfonamide] showed an IC50 not above 30 nM.

`Cc1cc2c(c(NC(=O)NS(=O)(=O)c3cc(C(C)(C)O)cs3)c1-c1ccn3cncc3c1)CCC2` [Example 69, 4-(2-hydroxypropan-2-yl)-N-((5-(imidazo[1,5-a]pyridin-7-yl)-6-methyl-2,3-dihydro-1H-inden-4-yl)carbamoyl)thiophene-2-sulfonamide] showed an IC50 not above 30 nM.

`CC(C)(O)c1csc(S(=O)(=O)NC(=O)Nc2c(-c3ccn4cnnc4c3)ccc3c2CCC3)c1` [Example 63, N-((5-([1,2,4]triazolo[4,3-a]pyridin-7-yl)-2,3-dihydro-1H-inden-4-yl)carbamoyl)-4-(2-hydroxypropan-2-yl)thiophene-2-sulfonamide] gave an IC50 not above 30 nM.

`Cc1cc2c(c(NC(=O)NS(=O)(=O)c3ccn(C[C@@H](C)O)n3)c1-c1ccn3nccc3c1)CCC2` [Example 79, (R)-1-(2-hydroxypropyl)-N-((6-methyl-5-(pyrazolo[1,5-a]pyridin-5-yl)-2,3-dihydro-1H-inden-4-yl)carbamoyl)-1H-pyrazole-3-sulfonamide] displayed an IC50 not above 30 nM.

Turning to `CC(C)(O)c1csc(S(=O)(=O)NC(=O)Nc2c(-c3ccn4nccc4c3)ccc3c2CCC3)c1` [Example 60, 4-(2-hydroxypropan-2-yl)-N-((5-(pyrazolo[1,5-a]pyridin-5-yl)-2,3-dihydro-1H-inden-4-yl)carbamoyl)thiophene-2-sulfonamide], the IC50 is not above 30 nM.

The compound `O=C(Nc1c2c(cc(Cl)c1-c1ccn3nccc3c1)CCC2)NS(=O)(=O)c1ccn(C2CC2)n1` [Example 89, N-((6-chloro-5-(pyrazolo[1,5-a]pyridin-5-yl)-2,3-dihydro-1H-inden-4-yl)carbamoyl)-1-cyclopropyl-1H-pyrazole-3-sulfonamide] came in with an IC50 not above 30 nM.

In turn, `Cc1cc2c(c(NC(=O)NS(=O)(=O)c3ccn(C4CC4)n3)c1-c1ccn3nccc3c1)CCC2` [Example 1, 1-cyclopropyl-N-((6-methyl-5-(pyrazolo[1,5-a]pyridin-5-yl)-2,3-dihydro-1H-inden-4-yl)carbamoyl)-1H-pyrazole-3-sulfonamide] returned an IC50 not above 30 nM.

These data come from patent US20240400561A1, “NOVEL SUBSTITUTED SULFONYLUREA COMPOUNDS AS INHIBITORS OF INTERLEUKIN-1 ACTIVITY” (Viva Star Biosciences (Suzhou) Co., Ltd., priority 2021, published 2024).
